Entries after “also recorded” stand apart in the source; their conditions may differ.
Key:
[1] = test system: murine cerebral aneurysm model; assay: Mouse intracranial aneurysm model: aneurysm formation; assay type: in vivo, mouse (C57BL/6); details: controls 57%, n=6 and 7
Experimental: Mouse intracranial aneurysm model. Murine intracranial aneurysms were created in female 8-12 week-old C57BL/6 mice (Charles River Laboratories, Wilmington, MA) following established protocols. Briefly, the left common carotid artery and the right renal artery are ligated to induce hypertension. One week later, an Alzet micro-osmotic pump model 1004 (DURECT Corp, Cupertino, CA) was implanted subdermally to deliver Angiotensin II (Bachem AG, Switzerland) at 1000 ng/kg/min; and 10 μL of 0.8% porcine elastase (Worthington Biochemical Corp, Lakewood, NJ) in normal saline was injected into the right basal cistern using stereotactic coordinates: 1.2 mm rostral of bregma, 0.7 mm lateral of midline and 5.3 mm ventral of the dorsal aspect of the skull. The animals were fed a hypertensive diet with 8% NaCl and 0.12% BAPN (TEKLAD). PBS-treated animals received […] injection of phosphate buffered saline subcutaneously every two days. […] All animal experimentation was performed under the Institutional Animal Care and Use Committee-approved protocols of the University of Pittsburgh.

[2] = test system: cytokine expression in aneurysm-induced cerebral vasculature; assay: Mouse cytokine arrays (96 cytokines) of aneurysm-induced cerebral vasculature; assay type: in vivo, mouse (C57BL/6); details: treated aneurysmal mice vs PBS-treated aneurysmal mice or sham surgery controls; n=3 each
Experimental: Temporal analysis and comparison with pharmacologic treatment were performed.
Mouse cytokine Arrays. Raybiotech cytokine arrays C1000 (AAM-CYT-1000, Raybiotech, Peachtree Corners, GA) were used to analyze 96 cytokines in aneurysm-induced cerebral vasculature at 2 and 3 weeks (n=3 each) and compared with reparixin-, clopidogrel-treated animals, and with sham surgery animals as controls (n=2).

| SMILES | aneurysm formation (mice that developed aneurysms) ([1]; 1 mg/kg clopidogrel, p<0.001) [%] | effect on cytokine expression / inflammatory profile in aneurysmal mice (heatmap, FIG. 4A) [2] | aneurysm formation (mice that developed aneurysms) ([1]; 10 mg/kg reparixin, p=0.0163) [%] |
| --- | --- | --- | --- |
| COC(=O)[C@H](c1ccccc1Cl)N1CCc2sccc2C1 [clopidogrel] | 0 | moderate response | – |
| CC(C)Cc1ccc([C@@H](C)C(=O)NS(C)(=O)=O)cc1 [reparixin] | – | vastly attenuated inflammatory profile; also recorded: robust anti-inflammatory effects | 14 |

— US20250027954A1, “METHODS OF DETECTING AND TREATING CEREBRAL ANEURYSMS” (UNIVERSITY OF PITTSBURGH-OF THE COMMONWEALTH SYSTEM OF …, priority 2022, published 2025)
